Assay results published in ChEMBL document CHEMBL1156141, “Synthesis and biological evaluation of novel thiocolchicine-podophyllotoxin conjugates” (Eur J Med Chem, 2010).
The source made the active and inactive calls. No cut-off for these calls is given here.

Columns and labels:
A549 [1] = conditions: Homo sapiens, at 0.5 µM
Description: Inhibition of microtubule in human A549 cells assessed as roundish cells at 0.5 uM after 24 hrs by immunofluorescence analysis

A549 [2] = test: Inhibition of microtubule in human A549 cells assessed as roundish cells at 0.5 uM after 1 hr by immunofluorescence analysis; format: cell-based
A549 [3] = conditions: Homo sapiens, at 0.5 µM; remark: listed apart in the source
Description: Inhibition of microtubule in human A549 cells assessed as network disappearane at 0.5 uM after 1 hr by immunofluorescence analysis

[4] = Chemical stability assessed as disulfide cleavage after 3 hrs by ESI-MS in presence of L-glutathione; format: physicochemical
A549 [5] = test: Inhibition of microtubule in human A549 cells assessed as microtubule organization at 0.5 uM after 1 hr by immunofluorescence analysis; format: cell-based

SMILES	inhibition (A549 [1])	inhibition (A549 [2])	inhibition (A549 [3])	Stability [4]	inhibition (A549 [5])
COc1cc2c(c(OC)c1OC)-c1ccc(SC)c(=O)cc1[C@@H](NC(=O)CCCCC(=O)N[C@H]1CCc3cc(OC)c(OC)c(OC)c3-c3ccc(SC)c(=O)cc31)CC2	Active	50%	–	–	–
COc1cc([C@@H]2c3cc4c(cc3[C@H](OC(=O)C(N)CSSCC(N)C(=O)O[C@H]3c5cc6c(cc5[C@@H](c5cc(OC)c(OC)c(OC)c5)[C@H]5C(=O)OC[C@@H]53)OCO6)[C@H]3COC(=O)[C@H]23)OCO4)cc(OC)c1OC (stereo partly specified)	Active	–	Active	–	–
COc1cc2c(c(OC)c1OC)-c1ccc(SC)c(=O)cc1[C@@H](NC(=O)CCSSCCC(=O)N[C@H]1CCc3cc(OC)c(OC)c(OC)c3-c3ccc(SC)c(=O)cc31)CC2	Active	–	Active	–	–
COc1cc2c(c(OC)c1OC)-c1ccc(SC)c(=O)cc1[C@@H](NC(=O)CSSCC(=O)N[C@H]1CCc3cc(OC)c(OC)c(OC)c3-c3ccc(SC)c(=O)cc31)CC2	Active	–	Active	Unstable	–
COc1cc2c(c(OC)c1OC)-c1ccc(SC)c(=O)cc1[C@@H](NC(=O)C(N)CSSCC(N)C(=O)N[C@H]1CCc3cc(OC)c(OC)c(OC)c3-c3ccc(SC)c(=O)cc31)CC2 (stereo partly specified)	Active	50%	–	–	–
COc1cc([C@@H]2c3cc4c(cc3[C@H](O)[C@H]3COC(=O)[C@H]23)OCO4)cc(OC)c1OC	Active	–	Active	–	–
COc1cc([C@@H]2c3cc4c(cc3[C@H](OC(=O)CCCSSCCCC(=O)N[C@H]3CCc5cc(OC)c(OC)c(OC)c5-c5ccc(SC)c(=O)cc53)[C@H]3COC(=O)[C@H]23)OCO4)cc(OC)c1OC	Active	–	Active	–	–
COc1cc([C@@H]2c3cc4c(cc3[C@H](OC(=O)CSSCC(=O)O[C@H]3c5cc6c(cc5[C@@H](c5cc(OC)c(OC)c(OC)c5)[C@H]5C(=O)OC[C@@H]53)OCO6)[C@H]3COC(=O)[C@H]23)OCO4)cc(OC)c1OC	Active	50%	–	–	–
COc1cc2c(c(OC)c1OC)-c1ccc(SC)c(=O)cc1[C@@H](NC(=O)C(N)CCCCC(N)C(=O)N[C@H]1CCc3cc(OC)c(OC)c(OC)c3-c3ccc(SC)c(=O)cc31)CC2 (stereo partly specified)	Active	–	–	–	inactive
COc1cc([C@@H]2c3cc4c(cc3[C@H](OC(=O)CCCCC(=O)O[C@H]3c5cc6c(cc5[C@@H](c5cc(OC)c(OC)c(OC)c5)[C@H]5C(=O)OC[C@@H]53)OCO6)[C@H]3COC(=O)[C@H]23)OCO4)cc(OC)c1OC	Active	–	–	–	inactive
